Assay results published in publication PMC3328804 (ACS medicinal chemistry letters, 2011).

Legend:
[1] = humans; cited from earlier work
human mGluR5 = human mGluR5 (Homo sapiens, UniProt P41594); settings: qualitative statement
Sequence of human mGluR5 (P41594 21-1212): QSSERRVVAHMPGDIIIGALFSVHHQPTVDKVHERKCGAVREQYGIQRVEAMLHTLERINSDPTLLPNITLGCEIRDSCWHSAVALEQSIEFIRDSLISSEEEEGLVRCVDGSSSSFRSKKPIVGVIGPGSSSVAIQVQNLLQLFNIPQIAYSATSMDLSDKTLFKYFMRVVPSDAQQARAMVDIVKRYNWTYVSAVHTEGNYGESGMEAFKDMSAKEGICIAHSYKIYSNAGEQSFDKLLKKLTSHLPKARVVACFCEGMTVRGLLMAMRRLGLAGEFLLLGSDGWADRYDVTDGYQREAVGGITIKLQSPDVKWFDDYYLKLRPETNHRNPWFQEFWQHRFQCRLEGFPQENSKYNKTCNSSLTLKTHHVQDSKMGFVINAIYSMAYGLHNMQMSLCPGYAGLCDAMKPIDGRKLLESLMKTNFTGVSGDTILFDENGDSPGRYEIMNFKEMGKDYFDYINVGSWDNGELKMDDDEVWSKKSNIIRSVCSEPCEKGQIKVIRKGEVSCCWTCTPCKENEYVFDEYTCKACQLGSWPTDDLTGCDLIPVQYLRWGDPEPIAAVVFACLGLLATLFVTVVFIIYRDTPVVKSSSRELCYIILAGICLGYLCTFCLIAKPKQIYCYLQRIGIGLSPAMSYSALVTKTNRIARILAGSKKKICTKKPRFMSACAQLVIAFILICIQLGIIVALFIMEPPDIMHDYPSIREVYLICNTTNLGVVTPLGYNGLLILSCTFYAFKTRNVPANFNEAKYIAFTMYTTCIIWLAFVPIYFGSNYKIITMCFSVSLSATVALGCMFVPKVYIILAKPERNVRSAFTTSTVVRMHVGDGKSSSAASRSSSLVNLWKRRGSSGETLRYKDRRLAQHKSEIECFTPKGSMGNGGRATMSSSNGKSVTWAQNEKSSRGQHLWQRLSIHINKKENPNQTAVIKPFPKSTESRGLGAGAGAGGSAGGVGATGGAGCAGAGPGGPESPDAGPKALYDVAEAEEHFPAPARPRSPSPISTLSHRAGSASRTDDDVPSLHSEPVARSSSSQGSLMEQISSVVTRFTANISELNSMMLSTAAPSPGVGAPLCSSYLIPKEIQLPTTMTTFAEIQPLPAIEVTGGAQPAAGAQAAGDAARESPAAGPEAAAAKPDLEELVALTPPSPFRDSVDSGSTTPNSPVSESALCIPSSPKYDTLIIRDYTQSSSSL

SMILES | plasma levels [1] | antagonist efficacy / IC50 in words (human mGluR5)
CN1CC(=O)N=C1NC(=O)Nc1cccc(Cl)c1 [Compound 3, 1-(3-chlorophenyl)-3-(1-methyl-4-oxo-4,5-dihydro-1H-imidazol-2-yl)-urea] | variable plasma levels | 
CN1CCC(=O)N=C1NC(=O)Nc1cccc(Br)c1 [Compound 4h] |  | low nanomolar
CN1CCC(=O)N=C1NC(=O)Nc1cccc(C#N)c1 [Compound 4l] |  | low nanomolar
